Results published in PubChem BioAssay AID256 (DTP/NCI, 2004).
Values joined by “and” are separate entries in the source; they are usually repeats but may differ in a detail not shown here. Equal values may be shown once. Toxic doses and inconclusive results are not listed.

Tested on: CD2F1 mice, L1210 leukemia ip, survival T/C
Test: NCI In Vivo Anticancer Drug Screen. Data for tumor model L1210 Leukemia (intraperitoneal) in CD2F1 (CDF1) mice
Conditions: higher = longer survival
Summary of the method: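 Compound-dosed mice with transplantable tumor versus matched vehicle controls; endpoint ratio T/C reported.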

[1] = endpoint: mean survival time, dose: 25.0 mg/kg/injection, schedule: Q04DX002 (ip), vehicle: saline
[2] = endpoint: mean survival time, dose: 50.0 mg/kg/injection, schedule: Q04DX002 (ip), vehicle: saline
[3] = endpoint: mean survival time, dose: 50.0 mg/kg/injection, schedule: Q01DX009 (ip), vehicle: saline with Tween-80
[4] = endpoint: mean survival time, dose: 100.0 mg/kg/injection, schedule: Q01DX009 (ip), vehicle: saline with Tween-80
[5] = endpoint: mean survival time, dose: 100.0 mg/kg/injection, schedule: Q04DX003 (ip), vehicle: saline with Tween-80
[6] = endpoint: mean survival time, dose: 200.0 mg/kg/injection, schedule: Q01DX009 (ip), vehicle: saline with Tween-80
[7] = endpoint: mean survival time, dose: 200.0 mg/kg/injection, schedule: Q04DX003 (ip), vehicle: saline with Tween-80
[8] = endpoint: mean survival time, dose: 400.0 mg/kg/injection, schedule: Q01DX009 (ip), vehicle: saline with Tween-80
[9] = endpoint: mean survival time, dose: 400.0 mg/kg/injection, schedule: Q04DX003 (ip), vehicle: saline with Tween-80
[10] = endpoint: mean survival time, dose: 100.0 mg/kg/injection, schedule: Q01DX001 (ip), vehicle: saline
[11] = endpoint: mean survival time, dose: 400.0 mg/kg/injection, schedule: Q04DX003 (ip), vehicle: saline

COc1ccc(OC)c(OC)c1CC(C)N (stereo not drawn) was tested, and the T/C [1] was 108 % of control, the T/C [2] was 97 % of control and the T/C (endpoint: mean survival time, dose: 100.0 mg/kg/injection, schedule: Q04DX002 (ip), vehicle: saline) was 91 % of control and 97 % of control.
In the case of CC(O)C(NC(=O)c1cnc(=O)[nH]c1N)C(=O)O (stereo not drawn), the T/C (endpoint: mean survival time, dose: 25.0 mg/kg/injection, schedule: Q01DX009 (ip), vehicle: saline with Tween-80) is reported as 105 % of control, the T/C [3] is reported as 102 % of control and the T/C [4] is reported as 102 % of control.
O=[N+]([O-])c1ccc2c(c1)CS(=O)(=O)C2 was tested, and the T/C [4] was 101 % of control, the T/C [5] was 96 % of control and the T/C [6] was 101 % of control. For the same molecule, the T/C [7] was 90 % of control, the T/C [8] was 101 % of control and the T/C [9] was 96 % of control.
For N.N.N.N.O=C(O)C1OCCOCCOC(C(=O)O)C(C(=O)O)OCCOCCOC1C(=O)O.[Pt+2].[Pt+2] (stereo not drawn), the T/C (endpoint: median survival time, dose: 0.39 mg/kg/injection, schedule: Q04DX003 (ip), vehicle: saline with Tween-80) was 100 % of control, the T/C (endpoint: median survival time, dose: 0.62 mg/kg/injection, schedule: Q04DX003 (ip), vehicle: saline) was 98 % of control and the T/C (endpoint: median survival time, dose: 0.78 mg/kg/injection, schedule: Q04DX003 (ip), vehicle: saline with Tween-80) was 107 % of control. The T/C (endpoint: median survival time, dose: 0.78 mg/kg/injection, schedule: Q04DX003 (ip), vehicle: saline) was 100 % of control, the T/C (endpoint: median survival time, dose: 1.25 mg/kg/injection, schedule: Q04DX003 (ip), vehicle: saline) was 98 % of control and the T/C (endpoint: median survival time, dose: 1.56 mg/kg/injection, schedule: Q04DX003 (ip), vehicle: saline with Tween-80) was 107 % of control. The T/C (endpoint: median survival time, dose: 1.56 mg/kg/injection, schedule: Q04DX003 (ip), vehicle: saline) was 101 % of control, the T/C (endpoint: median survival time, dose: 2.5 mg/kg/injection, schedule: Q04DX003 (ip), vehicle: saline) was 98 % of control and the T/C (endpoint: median survival time, dose: 3.12 mg/kg/injection, schedule: Q04DX003 (ip), vehicle: saline with Tween-80) was 110 % of control. The T/C (endpoint: median survival time, dose: 3.12 mg/kg/injection, schedule: Q04DX003 (ip), vehicle: saline) was 107 % of control, the T/C (endpoint: median survival time, dose: 5.0 mg/kg/injection, schedule: Q04DX003 (ip), vehicle: saline) was 102 % of control and the T/C (endpoint: median survival time, dose: 6.25 mg/kg/injection, schedule: Q04DX003 (ip), vehicle: saline with Tween-80) was 118 % of control. For the same molecule, the T/C (endpoint: median survival time, dose: 6.25 mg/kg/injection, schedule: Q04DX003 (ip), vehicle: saline) was 103 % of control, the T/C (endpoint: median survival time, dose: 10.0 mg/kg/injection, schedule: Q04DX003 (ip), vehicle: saline) was 111 % of control and the T/C (endpoint: median survival time, dose: 12.5 mg/kg/injection, schedule: Q04DX003 (ip), vehicle: saline) was 107 % of control. The T/C (endpoint: median survival time, dose: 20.0 mg/kg/injection, schedule: Q04DX003 (ip), vehicle: saline) was 111 % of control, the T/C (endpoint: median survival time, dose: 25.0 mg/kg/injection, schedule: Q04DX003 (ip), vehicle: saline with Tween-80) was 167 % of control and the T/C (endpoint: median survival time, dose: 25.0 mg/kg/injection, schedule: Q04DX003 (ip), vehicle: saline) was 123 % of control.
With CC(=O)c1cc(Br)cc(Br)c1O the T/C [10] was 96 % of control, the T/C (endpoint: mean survival time, dose: 200.0 mg/kg/injection, schedule: Q01DX001 (ip), vehicle: saline) was 100 % of control and the T/C (endpoint: mean survival time, dose: 400.0 mg/kg/injection, schedule: Q01DX001 (ip), vehicle: saline) was 96 % of control.
For CCN(CC)c1ccc2c(-c3ccccc3C(=O)O)c3ccc(=[N+](CC)CC)cc-3oc2c1, the T/C (endpoint: mean survival time, dose: 5.0 mg/kg/injection, schedule: Q04DX003 (ip), vehicle: saline with Tween-80) was 105 % of control, the T/C (endpoint: mean survival time, dose: 10.0 mg/kg/injection, schedule: Q04DX003 (ip), vehicle: saline with Tween-80) was 105 % of control and the T/C (endpoint: mean survival time, dose: 20.0 mg/kg/injection, schedule: Q04DX003 (ip), vehicle: saline with Tween-80) was 102 % of control. The T/C [4] was 101 % of control, the T/C [6] was 103 % of control and the T/C [8] was 100 % of control.
O=C(O)O.O=C(O)O.O=C(O)O.[Co] was tested, and the T/C [10] was 102 % of control and the T/C [11] was 97 % of control.
In the case of S=C=NCCCCCCN=C=S, the T/C (endpoint: mean survival time, dose: 6.25 mg/kg/injection, schedule: Q04DX002 (ip), vehicle: saline) is reported as 104 % of control, the T/C (endpoint: mean survival time, dose: 12.5 mg/kg/injection, schedule: Q04DX002 (ip), vehicle: saline) is reported as 98 % of control and the T/C [1] is reported as 90 % of control and 102 % of control. For the same molecule, the T/C [2] was 98 % of control.
For Cn1ccc(=O)nc1, the T/C (endpoint: mean survival time, dose: 100.0 mg/kg/injection, schedule: Q04DX003 (ip), vehicle: saline sonified) was 102 % of control, the T/C (endpoint: mean survival time, dose: 200.0 mg/kg/injection, schedule: Q04DX003 (ip), vehicle: saline sonified) was 104 % of control and the T/C (endpoint: mean survival time, dose: 400.0 mg/kg/injection, schedule: Q04DX003 (ip), vehicle: saline sonified) was 104 % of control.
In the case of CCCc1cc(C(C)=O)c[n+](C2OC(COC(C)=O)C(OC(C)=O)C(OC(C)=O)C2OC(C)=O)c1 (stereo not drawn), the T/C (endpoint: mean survival time, dose: 3.13 mg/kg/injection, schedule: Q01DX005 (ip), vehicle: water) is reported as 107 % of control, the T/C (endpoint: mean survival time, dose: 6.25 mg/kg/injection, schedule: Q01DX005 (ip), vehicle: water) is reported as 100 % of control and the T/C (endpoint: mean survival time, dose: 12.5 mg/kg/injection, schedule: Q01DX005 (ip), vehicle: water) is reported as 104 % of control. For the same molecule, the T/C (endpoint: mean survival time, dose: 25.0 mg/kg/injection, schedule: Q01DX005 (ip), vehicle: water) was 109 % of control and the T/C (endpoint: mean survival time, dose: 50.0 mg/kg/injection, schedule: Q01DX005 (ip), vehicle: water) was 95 % of control.
CCC(CNCC(=O)O)(C(=O)O)C(=O)O was tested, and the T/C (endpoint: mean survival time, dose: 12.5 mg/kg/injection, schedule: Q04DX002 (ip), vehicle: saline with Tween-80) was 104 % of control, the T/C (endpoint: mean survival time, dose: 25.0 mg/kg/injection, schedule: Q04DX002 (ip), vehicle: saline with Tween-80) was 93 % of control and the T/C (endpoint: mean survival time, dose: 50.0 mg/kg/injection, schedule: Q04DX002 (ip), vehicle: saline with Tween-80) was 111 % of control.
In the case of c1ccc(C2NNC(c3ccccc3)NN2)cc1 (stereo not drawn), the T/C (endpoint: mean survival time, dose: 100.0 mg/kg/injection, schedule: Q01DX001 (ip), vehicle: other) is reported as 100 % of control, the T/C (endpoint: mean survival time, dose: 200.0 mg/kg/injection, schedule: Q01DX001 (ip), vehicle: other) is reported as 97 % of control and the T/C (endpoint: mean survival time, dose: 400.0 mg/kg/injection, schedule: Q01DX001 (ip), vehicle: other) is reported as 92 % of control.
With OC(c1ccccc1)(C1SCCCS1)C1SCCCS1 the T/C [3] was 94 % of control, the T/C [4] was 97 % of control and the T/C [6] was 94 % of control.
For COC(=O)C1C2CC(=O)C(C2)C1C(=O)OC (stereo not drawn), the T/C [4] was 93 % of control, the T/C [6] was 99 % of control and the T/C [8] was 93 % of control.
With CCCc1nc(N)[nH]c(=O)c1CCCCc1ccccc1 the T/C [5] was 88 % of control, the T/C [7] was 94 % of control and the T/C [9] was 93 % of control.
With COC(=O)Nc1ccc(Cc2ccc(NC(=O)OC)cc2)cc1 the T/C [3] was 121 % of control and 104 % of control, the T/C [4] was 120 % of control and 110 % of control and the T/C [8] was 87 % of control.
In the case of ICC12CCC1(CI)COC2 (stereo not drawn), the T/C (endpoint: mean survival time, dose: 100.0 mg/kg/injection, schedule: Q04DX003 (ip), vehicle: saline) is reported as 96 % of control, the T/C (endpoint: mean survival time, dose: 200.0 mg/kg/injection, schedule: Q04DX003 (ip), vehicle: saline) is reported as 96 % of control and the T/C [11] is reported as 93 % of control.
In the case of Cc1ccc(S(=O)(=O)N/N=C2/CC3CCC(C)(C2)C3)cc1 (stereo not drawn), the T/C [9] is reported as 94 % of control.
CC1(C)CN(c2ccccc2)NC1=O was tested, and the T/C (endpoint: mean survival time, dose: 1.25 mg/kg/injection, schedule: Q01DX009 (ip), vehicle: Klucel (hydroxypropylcellulose) (HPC)) was 101 % of control, the T/C (endpoint: mean survival time, dose: 2.5 mg/kg/injection, schedule: Q01DX009 (ip), vehicle: Klucel (hydroxypropylcellulose) (HPC)) was 98 % of control and the T/C (endpoint: mean survival time, dose: 5.0 mg/kg/injection, schedule: Q01DX009 (ip), vehicle: Klucel (hydroxypropylcellulose) (HPC)) was 101 % of control.
